# Biological target: Human VPS34 (Homo sapiens (Human), UniProt Q8NEB9)
# Experiment: Human VPS34 enzyme assay (Adapta TR-FRET)
# Format: biochemical
# Settings: IC50 range class
# Sequence of Human VPS34 (Q8NEB9 whole entry): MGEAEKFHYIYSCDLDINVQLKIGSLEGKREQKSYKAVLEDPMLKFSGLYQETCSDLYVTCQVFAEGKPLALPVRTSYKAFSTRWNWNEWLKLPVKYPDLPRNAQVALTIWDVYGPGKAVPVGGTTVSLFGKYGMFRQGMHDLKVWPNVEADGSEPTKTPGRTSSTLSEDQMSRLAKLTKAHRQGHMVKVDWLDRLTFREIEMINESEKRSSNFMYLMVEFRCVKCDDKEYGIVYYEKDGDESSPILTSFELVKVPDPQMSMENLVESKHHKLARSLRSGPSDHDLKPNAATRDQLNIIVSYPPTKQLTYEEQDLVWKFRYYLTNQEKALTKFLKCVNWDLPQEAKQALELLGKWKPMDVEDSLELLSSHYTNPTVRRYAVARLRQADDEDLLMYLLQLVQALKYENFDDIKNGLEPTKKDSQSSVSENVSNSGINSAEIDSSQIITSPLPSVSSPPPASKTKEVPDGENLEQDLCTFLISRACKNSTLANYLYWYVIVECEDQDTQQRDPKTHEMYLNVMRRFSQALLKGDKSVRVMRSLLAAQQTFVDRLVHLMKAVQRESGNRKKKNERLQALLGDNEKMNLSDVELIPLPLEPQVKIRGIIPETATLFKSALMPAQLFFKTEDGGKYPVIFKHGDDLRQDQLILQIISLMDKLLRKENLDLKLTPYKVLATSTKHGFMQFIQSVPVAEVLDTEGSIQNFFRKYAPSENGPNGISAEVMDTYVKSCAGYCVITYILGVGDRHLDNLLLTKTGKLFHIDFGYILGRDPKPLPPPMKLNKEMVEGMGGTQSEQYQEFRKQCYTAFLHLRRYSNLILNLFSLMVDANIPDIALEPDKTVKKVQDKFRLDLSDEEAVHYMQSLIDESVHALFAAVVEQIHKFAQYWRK
row,SMILES,IC50 [nM]
1,"CC(=O)Nc1cc(-c2cnc(N)c(S(=O)(=O)NC(C)C)c2)ccn1 [Compound I-7, N-[6-amino-5-(isopropylsulfamoyl)-3,4′-bipyridin-2′-yl]acetamide]",< 10
2,"CC(=O)Nc1cc(-c2cnc(N)c(S(=O)(=O)NCc3cccnc3)c2)ccn1 [Compound I-19, N-{6-amino-5-[(pyridin-3-ylmethyl)sulfamoyl]-3,4′-bipyridin-2′-yl}acetamide]",50 to 100

# Same assay, conditions: compound concentration 1.11 μM; read-out: Percent Inhibition
row,SMILES,inhibition at 1.11 µM [%]
1,"Cc1ncc(-c2ccnc(NC(=O)C3CC3(F)F)c2)cc1NS(=O)(=O)c1ccc(F)cc1F (racemic) [Compound I-16, (rac)-N-(5-{[(2,4-difluorophenyl)sulfonyl]amino}-6-methyl-3,4′-bipyridin-2′-yl)-2,2-difluorocyclopropanecarboxamide]",> 99
2,"CC(=O)Nc1cc(-c2cnc(C)c(N3CC(N(C)C)CS3(=O)=O)c2)ccn1 (single isomer, unassigned) [Compound I-496, N-(5-(4-(dimethylamino)-1,1-dioxidoisothiazolidin-2-yl)-6-methyl-[3,4′-bipyridin]-2′-yl)acetamide]",> 99
3,"CC(=O)Nc1cc(-c2cnc(C)c(N3CC(N(C)C)CS3(=O)=O)c2)ccn1 (single isomer, unassigned) [Compound I-497, (R or S)—N-(5-(4-(dimethylamino)-1,1-dioxidoisothiazolidin-2-yl)-6-methyl-[3,4′-bipyridin]-2′-yl)acetamide]",> 99
4,"CC(=O)Nc1cc(-c2cnc(C)c(NS(=O)(=O)c3ccc(C(F)(F)F)nc3)c2)ccn1 [Compound I-1, N-[6-methyl-5-({[6-(trifluoromethyl)pyridin-3-yl]sulfonyl}amino)-3,4′-bipyridin-2′-yl]acetamide]",> 99
5,"CC(=O)Nc1cc(-c2cnc3cnn(S(=O)(=O)C4CC4)c3c2)ccn1 [Compound I-2, N-{4-[1-(cyclopropylsulfonyl)-1H-pyrazolo[4,3-b]pyridin-6-yl]pyridin-2-yl}acetamide]",> 99
6,CC(=O)Nc1cc(-c2cnc(N)c(S(=O)(=O)Cc3ccc4ccccc4c3)c2)ccn1 [Compound I-3],87
7,"Cc1cnc(NC(=O)C2CC2)cc1-c1cnc(C)c(NS(=O)(=O)c2ccc(F)cc2F)c1 [Compound I-4, N-(5-{[(2,4-difluorophenyl)sulfonyl]amino}-5′,6-dimethyl-3,4′-bipyridin-2′-yl)cyclopropanecarboxamide]",> 99
8,"CC(=O)Nc1cc(-c2cnc(N)c(S(=O)(=O)Cc3ccccc3)c2)ccn1 [Compound I-6, N-[6-amino-5-(benzylsulfonyl)-3,4′-bipyridin-2′-yl]acetamide]",> 99
9,"CC(=O)Nc1cc(-c2cnc(N)c(S(=O)(=O)NC(C)C)c2)ccn1 [Compound I-7, N-[6-amino-5-(isopropylsulfamoyl)-3,4′-bipyridin-2′-yl]acetamide]",> 99
10,"CC(=O)Nc1cc(-c2cncc(C(=O)C3CC3)c2)ccn1 [Compound I-8, N-[5-(cyclopropylcarbonyl)-3,4′-bipyridin-2′-yl]acetamide]",> 99
11,"CC(=O)Nc1cc(-c2cncc(S(=O)(=O)N3CCC(F)(F)CC3)c2)ccn1 [Compound I-9, N-{5-[(4,4-difluoropiperidin-1-yl)sulfonyl]-3,4′-bipyridin-2′-yl}acetamide]",> 99
12,"CC(=O)Nc1cc(-c2cnc(N)c(C(=O)N3CCCCC3)c2)ccn1 [Compound I-10, N-[6-amino-5-(piperidin-1-ylcarbonyl)-3,4′-bipyridin-2′-yl]acetamide]",> 99
13,"CC(=O)Nc1cc(-c2cnc(N)c(S(=O)(=O)NC34CC(C3)C4)c2)ccn1 [Compound I-11, N-[6-amino-5-(bicyclo[1.1.1]pent-1-ylsulfamoyl)-3,4′-bipyridin-2′-yl]acetamide]",> 99
14,"CC(=O)Nc1cc(-c2cncc(NS(=O)(=O)c3ccc(F)cc3F)c2)ccn1 [Compound I-12, N-(5-{[(2,4-difluorophenyl)sulfonyl]amino}-3,4′-bipyridin-2′-yl)acetamide]",> 99
15,"CC(=O)Nc1cc(-c2cncc(NC(=O)c3ccccc3)c2)ccn1 [Compound I-13, N-(2′-acetamido-3,4′-bipyridin-5-yl)benzamide]",81
16,"CC(=O)Nc1cc(-c2cnc(N)c(C(=O)NCC3CC3)c2)ccn1 [Compound I-14, 2′-acetamido-6-amino-N-(cyclopropylmethyl)-3,4′-bipyridine-5-carboxamide]",> 99
17,"CC(=O)Nc1cc(-c2cnc(N)c(C(=O)N3CCCC3)c2)ccn1 [Compound I-15, N-[6-amino-5-(pyrrolidin-1-ylcarbonyl)-3,4′-bipyridin-2′-yl]acetamide]",> 99
18,"CC(=O)Nc1cc(-c2cnc3cc[nH]c3c2)ccn1 [Compound I-17, N-[4-(1H-pyrrolo[3,2-b]pyridin-6-yl)pyridin-2-yl]acetamide]",> 99
19,"CC(=O)Nc1cc(-c2cnc(C)c(NS(=O)(=O)c3cn(C)nc3C(F)(F)F)c2)ccn1 [Compound I-18, N-[6-methyl-5-({[1-methyl-3-(trifluoromethyl)-1H-pyrazol-4-yl]sulfonyl}amino)-3,4′-bipyridin-2′-yl]acetamide]",> 99
20,"CC(=O)Nc1cc(-c2cnc(N)c(S(=O)(=O)NCc3cccnc3)c2)ccn1 [Compound I-19, N-{6-amino-5-[(pyridin-3-ylmethyl)sulfamoyl]-3,4′-bipyridin-2′-yl}acetamide]",> 99
21,"CC(=O)Nc1cc(-c2cncc(N(C)S(C)(=O)=O)c2)ccn1 [Compound I-20, N-{5-[methyl(methylsulfonyl)amino]-3,4′-bipyridin-2′-yl}acetamide]",> 99

row,SMILES,inhibition at 1.11 µM [%]
1,"CC(=O)Nc1cc(-c2cnc3c(c2)S(=O)(=O)N(C)CN3)ccn1 [Compound I-21, N-[4-(2-methyl-1,1-dioxido-3,4-dihydro-2H-pyrido[2,3-e][1,2,4]thiadiazin-7-yl)pyridin-2-yl]acetamide]",> 99
2,"CNc1ncc(-c2ccnc(NC(C)=O)c2)cc1C(=O)N(C)C [Compound I-22, 2′-acetamido-N,N-dimethyl-6-(methylamino)-3,4′-bipyridine-5-carboxamide]",> 99
3,"CC(=O)Nc1cc(-c2cnc3ccn(S(=O)(=O)c4ccccc4)c3c2)ccn1 [Compound I-23, N-{4-[1-(phenylsulfonyl)-1H-pyrrolo[3,2-b]pyridin-6-yl]pyridin-2-yl}acetamide]",> 99
4,"CC(=O)Nc1cc(-c2cnc(N)c(S(=O)(=O)N3CCOCC3)c2)ccn1 [Compound I-24, N-[6-amino-5-(morpholin-4-ylsulfonyl)-3,4′-bipyridin-2′-yl]acetamide]",> 99
5,"CC(=O)Nc1cc(-c2cnc(N(C)C)c(NS(=O)(=O)c3ccc(F)cc3F)c2)ccn1 [Compound I-25, N-[5-{[(2,4-diflurophenyl)sulfonyl]amino}-6-(dimethylamino)-3,4′-bipyridin-2′-yl]acetamide]",> 99
6,"CCN(c1cc(-c2ccnc(NC(C)=O)c2)cnc1C)S(=O)(=O)C1CC1 [Compound I-26, N-{5-[(cyclopropylsulfonyl)(ethyl)amino]-6-methyl-3,4′-bipyridin-2′-yl}acetamide]",> 99
7,"CCN(CC)C(=O)c1cc(-c2ccnc(NC(C)=O)c2)cnc1N [Compound I-27, 2′-acetamido-6-amino-N,N-diethyl-3,4′-bipyridine-5-carboxamide]",> 99
8,"CC(=O)Nc1cc(-c2cnc(C)c(NS(=O)(=O)c3cc(C)ccc3F)c2)ccn1 [Compound I-28, N-(5-{[(2-fluoro-5-methylphenyl)sulfonyl]amino}-6-methyl-3,4′-bipyridin-2′-yl)acetamide]",> 99
9,"CC(=O)Nc1cc(-c2cnc3c(c2)N(CC2CC2)S(=O)(=O)N3)ccn1 [Compound I-29, N-{4-[1-(cyclopropylmethyl)-2,2-dioxido-1,3-dihydro[1,2,5]thiadiazolo[3,4-b]pyridin-6-yl]pyridin-2-yl}acetamide]",> 99
10,"CC(=O)Nc1cc(-c2cnc(C)c(NS(=O)(=O)c3ccc(Cl)cc3Cl)c2)ccn1 [Compound I-30, N-(5-{[(2,4-dichlorophenyl)sulfonyl]amino}-6-methyl-3,4′-bipyridin-2′-yl)acetamide]",> 99
11,"CC(=O)Nc1cc(-c2cnc(C)c(NS(=O)(=O)N(C)C)c2)ccn1 [Compound I-32, N-{5-[(dimethylsulfamoyl)amino]-6-methyl-3,4′-bipyridin-2′-yl}acetamide]",> 99
12,"CC(=O)Nc1cc(-c2cnc3ccn(S(C)(=O)=O)c3c2)ccn1 [Compound I-33, N-{4-[1-(methylsulfonyl)-1H-pyrrolo[3,2-b]pyridin-6-yl]pyridin-2-yl}acetamide]",> 99
13,"COC(=O)Nc1cc(-c2cnc(N)c(S(=O)(=O)C(C)C)c2)ccn1 [Compound I-34, methyl[6-amino-5-(isopropylsulfonyl)-3,4′-bipyridin-2′-yl]carbamate]",> 99
14,"CC(=O)Nc1cc(-c2cnc(N)c(NCC3CC3)c2)ccn1 [Compound I-35, N-{6-amino-5-[(cyclopropylmethyl)amino]-3,4′-bipyridin-2′-yl}acetamide]",> 99
15,"COC(=O)Nc1cc(-c2cnc(N)c(S(=O)(=O)N3CCCC3)c2)ccn1 [Compound I-36, methyl[6-amino-5-(pyrrolidin-1-ylsulfonyl)-3,4′-bipyridin-2′-yl]carbamate]",> 99
16,"CC(=O)Nc1cc(-c2cnc(N)c(S(=O)(=O)N(C)c3ccccc3)c2)ccn1 [Compound I-37, N-{6-amino-5-[methyl(phenyl)sulfamoyl]-3,4′-bipyridin-2′-yl}acetamide]",> 99
17,"COC(=O)Nc1cc(-c2cnc3[nH]ncc3c2)ccn1 [Compound I-38, Methyl [4-(1H-pyrazolo[3,4-b]pyridin-5-yl)pyridin-2-yl]carbamate]",> 99
18,"COc1ncc(-c2ccnc(NC(C)=O)c2)cc1S(=O)(=O)Nc1ccccc1 [Compound I-39, N-[6-methoxy-5-(phenylsulfamoyl)-3,4′-bipyridin-2′-yl]acetamide]",> 99
19,"CC(=O)Nc1cc(-c2cnc3[nH]cc(S(=O)(=O)N(C)C)c3c2)ccn1 [Compound I-40, N-{4-[3-(dimethylsulfamoyl)-1H-pyrrolo[2,3-b]pyridin-5-yl]pyridin-2-yl}acetamide]",> 99
20,"CC(=O)Nc1cc(-c2cnc(C)c(NS(=O)(=O)c3ccc(F)cc3F)c2)ccn1 [Compound I-41, N-(5-{[(2,4-difluorophenyl)sulfonyl]amino}-6-methyl-3,4′-bipyridin-2′-yl)acetamide]",> 99
